Measurements reported in patent US9169310B2 (Zealand Pharma A/S, priority 2010, dated 2015).
Where two headings read alike, the source gives them in different places. Starred links: 1 amine or outer side, 2 acyl side, 3 side chain; linkers in the order of their positions; H or OH if unused. Non-standard residues stand in square brackets, D forms with d. Residues, ends and D or L forms follow the SMILES beside them. Groups on a side chain read outwards from the residue. *: point of attachment. γGlu = O=C(O)[C@H](CCC(=O)[*:2])N[*:1]; Palmitoyl = CCCCCCCCCCCCCCCC(=O)*; Aib = CC(C)(N)C(=O)O

Legend:
human glucagon-R = target: T1, human glucagon-R (Homo sapiens, UniProt P47871); experiment: Glucagon receptor efficacy assay (cAMP formation, FlashPlate cAMP kit); type: cell-based
T1 construct: expressed in transfected cells
T1 sequence (P47871 26-477): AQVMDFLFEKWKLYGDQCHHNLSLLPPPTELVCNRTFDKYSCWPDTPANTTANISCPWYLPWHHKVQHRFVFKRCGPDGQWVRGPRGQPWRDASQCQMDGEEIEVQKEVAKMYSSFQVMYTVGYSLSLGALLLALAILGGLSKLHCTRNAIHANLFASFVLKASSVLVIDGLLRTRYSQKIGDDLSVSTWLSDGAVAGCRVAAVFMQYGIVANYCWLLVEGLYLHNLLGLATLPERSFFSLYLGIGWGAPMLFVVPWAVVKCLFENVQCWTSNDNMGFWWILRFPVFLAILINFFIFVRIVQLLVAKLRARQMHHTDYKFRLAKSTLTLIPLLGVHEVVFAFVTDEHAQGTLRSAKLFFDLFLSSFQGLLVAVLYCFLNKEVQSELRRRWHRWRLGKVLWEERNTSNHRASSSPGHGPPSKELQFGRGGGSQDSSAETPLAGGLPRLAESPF
Description: (§1) The 5′-end primers additionally encoded a near Kozak consensus sequence to ensure efficient translation.
(§2) 48 hr after transfection, cells were seeded for limited dilution cloning and selected with 1 mg/ml G418 in the culture medium.

human GLP-1R = target: T2, human GLP-1R (Homo sapiens, UniProt P43220); experiment: GLP-1 receptor efficacy assay (cAMP formation, FlashPlate cAMP kit); type: cell-based; settings: HEK293 cells expressing human GLP-1R; cAMP formed, 15 min at 37° C.
T2 construct: expressed in transfected cells
T2 sequence (P43220 24-463): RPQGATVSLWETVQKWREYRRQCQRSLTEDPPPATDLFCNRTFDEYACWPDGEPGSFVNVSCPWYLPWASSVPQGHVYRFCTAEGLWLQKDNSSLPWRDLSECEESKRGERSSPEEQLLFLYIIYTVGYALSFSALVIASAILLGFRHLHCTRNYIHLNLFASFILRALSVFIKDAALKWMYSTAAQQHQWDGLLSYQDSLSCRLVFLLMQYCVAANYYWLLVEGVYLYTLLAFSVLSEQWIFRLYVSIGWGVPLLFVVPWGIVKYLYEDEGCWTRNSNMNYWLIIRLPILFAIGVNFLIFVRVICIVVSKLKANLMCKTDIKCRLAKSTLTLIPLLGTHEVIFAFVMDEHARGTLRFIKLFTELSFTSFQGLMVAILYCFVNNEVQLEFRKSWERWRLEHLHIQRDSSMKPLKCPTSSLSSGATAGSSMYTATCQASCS
Description: as §1, §2

[1] = HEK293 cells expressing human glucagon-R; cAMP formed, 15 min at 37° C.; read-out: EC50 nM) GluR

Question: `CCCCCCCCCCCCCCCC(=O)N[C@@H](CCC(=O)NCCCC[C@H](NC(=O)[C@H](CO)NC(=O)[C@H](CC(=O)O)NC(=O)[C@H](CC(C)C)NC(=O)[C@H](Cc1ccc(O)cc1)NC(=O)[C@H](CCCCN)NC(=O)[C@H](CO)NC(=O)[C@H](Cc1ccc(O)cc1)NC(=O)[C@H](CC(=O)O)NC(=O)[C@H](CO)NC(=O)[C@@H](NC(=O)[C@H](Cc1ccccc1)NC(=O)[C@@H](NC(=O)CNC(=O)[C@H](Cc1c[nH]cn1)NC(=O)C(C)(C)NC(=O)[C@@H](N)Cc1c[nH]cn1)[C@@H](C)O)[C@@H](C)O)C(=O)N[C@@H](C)C(=O)N[C@@H](C)C(=O)N[C@@H](Cc1c[nH]cn1)C(=O)N[C@@H](CCC(=O)O)C(=O)N[C@@H](Cc1ccccc1)C(=O)N[C@H](C(=O)N[C@@H](CCC(=O)O)C(=O)N[C@@H](Cc1c[nH]c2ccccc12)C(=O)N[C@@H](CC(C)C)C(=O)N[C@@H](CC(C)C)C(=O)N[C@@H](CCC(=O)O)C(=O)N[C@@H](C)C(N)=O)C(C)C)C(=O)O` [Compound 5] (H-H[Aib]HGTFTSDYSKYLDSK([γGlu-Palmitoyl])AAHEFVEWLLEA-NH2) was tested. Which EC50 (human glucagon-R; [1]) did it give?
Answer: 0.15 nM

Question: And the EC50 (human GLP-1R)?
Answer: 0.16 nM

Question: With `CCCCCCCCCCCCCCCC(=O)N[C@@H](CCC(=O)NCCCC[C@H](NC(=O)[C@H](CO)NC(=O)[C@H](CC(=O)O)NC(=O)[C@H](CC(C)C)NC(=O)[C@H](Cc1ccc(O)cc1)NC(=O)[C@H](CCCCN)NC(=O)[C@H](CO)NC(=O)[C@H](Cc1ccc(O)cc1)NC(=O)[C@H](CC(=O)O)NC(=O)[C@H](CO)NC(=O)[C@@H](NC(=O)[C@H](Cc1ccccc1)NC(=O)[C@@H](NC(=O)CNC(=O)[C@@H](NC(=O)C(C)(C)NC(=O)[C@@H](N)Cc1c[nH]cn1)[C@@H](C)CC)[C@@H](C)O)[C@@H](C)O)C(=O)N[C@@H](C)C(=O)N[C@@H](C)C(=O)N[C@@H](Cc1c[nH]cn1)C(=O)N[C@@H](CC(=O)O)C(=O)N[C@@H](Cc1ccccc1)C(=O)N[C@H](C(=O)N[C@@H](CCC(=O)O)C(=O)N[C@@H](Cc1c[nH]c2ccccc12)C(=O)N[C@@H](CC(C)C)C(=O)N[C@@H](CC(C)C)C(=O)N[C@@H](CO)C(=O)N[C@@H](C)C(N)=O)C(C)C)C(=O)O` [Compound 19] (H-H[Aib]IGTFTSDYSKYLDSK([γGlu-Palmitoyl])AAHDFVEWLLSA-NH2) as the molecule, how does the EC50 (human glucagon-R; earlier determination, replaced by redetermination in Table 1, read-out: EC50 GluR, earlier determined value) read?
Answer: 3 nM

Question: What about the EC50 (human GLP-1R) of the same molecule?
Answer: 0.16 nM

Question: Which EC50 (human glucagon-R; [1]) does the source give for `CCCCCCCCCCCCCCCC(=O)N[C@@H](CCC(=O)NCCCC[C@H](NC(=O)[C@H](CO)NC(=O)[C@H](CC(=O)O)NC(=O)[C@H](CC(C)C)NC(=O)[C@H](Cc1ccc(O)cc1)NC(=O)[C@H](CCCCN)NC(=O)[C@H](CO)NC(=O)[C@H](Cc1ccc(O)cc1)NC(=O)[C@H](CC(=O)O)NC(=O)[C@H](CO)NC(=O)[C@@H](NC(=O)[C@H](Cc1ccccc1)NC(=O)[C@@H](NC(=O)CNC(=O)CNC(=O)C(C)(C)NC(=O)[C@@H](N)Cc1c[nH]cn1)[C@@H](C)O)[C@@H](C)O)C(=O)N[C@@H](C)C(=O)N[C@@H](C)C(=O)N[C@@H](Cc1c[nH]cn1)C(=O)N[C@@H](CC(=O)O)C(=O)N[C@@H](Cc1ccccc1)C(=O)N[C@H](C(=O)N[C@@H](CCC(=O)O)C(=O)N[C@@H](Cc1c[nH]c2ccccc12)C(=O)N[C@@H](CC(C)C)C(=O)N[C@@H](CC(C)C)C(=O)N[C@@H](CO)C(=O)N[C@@H](C)C(N)=O)C(C)C)C(=O)O` [Compound 20] (H-H[Aib]GGTFTSDYSKYLDSK([γGlu-Palmitoyl])AAHDFVEWLLSA-NH2) here?
Answer: 26 nM

Question: And the EC50 (human GLP-1R)?
Answer: 0.21 nM

Question: How did the EC50 (human glucagon-R; [1]) turn out when `CCCCCCCCCCCCCCCC(=O)N[C@@H](CCC(=O)NCCCC[C@H](NC(=O)[C@H](CO)NC(=O)[C@H](CCC(=O)O)NC(=O)[C@H](CC(C)C)NC(=O)[C@H](Cc1ccc(O)cc1)NC(=O)[C@H](CCCCN)NC(=O)[C@H](CO)NC(=O)[C@H](Cc1ccc(O)cc1)NC(=O)[C@H](CC(=O)O)NC(=O)[C@H](CO)NC(=O)[C@@H](NC(=O)[C@H](Cc1ccccc1)NC(=O)[C@@H](NC(=O)CNC(=O)[C@H](Cc1c[nH]cn1)NC(=O)C(C)(C)NC(=O)[C@@H](N)Cc1c[nH]cn1)[C@@H](C)O)[C@@H](C)O)C(=O)N[C@@H](C)C(=O)N[C@@H](C)C(=O)N[C@@H](CCC(=O)O)C(=O)N[C@@H](CCC(=O)O)C(=O)N[C@@H](Cc1ccccc1)C(=O)N[C@H](C(=O)N[C@@H](CCC(=O)O)C(=O)N[C@@H](Cc1c[nH]c2ccccc12)C(=O)N[C@@H](CC(C)C)C(=O)N[C@@H](CC(C)C)C(=O)N[C@@H](CCC(=O)O)C(=O)N[C@@H](C)C(N)=O)C(C)C)C(=O)O` [Compound 31] (H-H[Aib]HGTFTSDYSKYLESK([γGlu-Palmitoyl])AAEEFVEWLLEA-NH2) was run?
Answer: 0.15 nM

Question: And the EC50 (human GLP-1R)?
Answer: 0.09 nM
